Experimental data from patent US20180031513A1, “CELL CHIP-BASED QUANTITATIVE ANALYSIS OF UNDIFFERENTIATED HUMAN PLURIPOTENT STEM CELL” (SOGANG UNIVERSITY RESEARCH FOUNDATION, priority 2015, published 2018).

Columns and labels:
Assay type in all cases: cell-based, human
hiPSCs (SES8) = assay: Cell chip cyclic voltammetry (ipc) and cell number of hiPSCs after YM155 treatment; conditions: 24 h after dose-dependent YM155 treatment (FIG. 6A)
Method: (§1) hESCs (H9; Wicell Research Institute) and hiPSCs (SES8; (32)) were cultured in mTeSR1 medium (StemCell Technologies) under feeder-free conditions. hASMCs and i-dSMCs were cultured in smooth muscle cell-specific medium, SMCM (ScienCell Research Laboratories), and hDFs were cultured in DMEM medium (Gibco) supplemented with 10% FBS and 0.1% gentamycin. Alkaline phosphatase staining was performed according to the direction included in the Alkaline Phosphatase Kit (Sigma).
(§2) Cyclic voltammetry (CV) method was carried out using a CHIe660C Potentiostat (CH Instruments, Austin, Tex., USA). A fabricated chip, based on an Au electrode as a working electrode, an Ag/AgCl (1M KCl) as a reference electrode, and a Pt wire as a counter electrode was used. For the electrochemical measurement, cells were washed with PBS (0.01 M, PH 7.4). […] All measurements were replicated at least three times, and the cell number was calculated following detection.
(§3) The present inventors reported two kinds of small molecules for inducing the selective apoptosis of undifferentiated hPSCs in previous studies (33). […] Label-free cell chip-based quantification of residual undifferentiated hPSCs may be applied at the end stage, which is critical to determine whether any additional treatment of undifferentiated cells is required in order to ensure safety of tumor-free cell therapy. […]

hESCs (H9) = assay: Cell chip cyclic voltammetry (ipc) of hESCs after YM155 treatment; conditions: 24 h after dose-dependent YM155 treatment (FIG. 6B)
Method: as §1, §2, §3

[1] = test system: hiPSCs co-cultured with hASMCs; assay: Cell chip ipc and colony morphology in mixed culture of hiPSCs and hASMCs after YM155 treatment
Method: (§4) Cyclic voltammetry (CV) method was carried out using a CHIe660C Potentiostat (CH Instruments, Austin, Tex., USA). A fabricated chip, based on an Au electrode as a working electrode, an Ag/AgCl (1M KCl) as a reference electrode, and a Pt wire as a counter electrode was used. For the electrochemical measurement, cells were washed with PBS (0.01 M, PH 7.4). CV detection was performed between −0.2 V and 0.6 V at 0.1 V/s in mTeSR1 (StemCell Technologies, #05850). All measurements were replicated at least three times, and the cell number was calculated following detection.
(§5) The present inventors reported two kinds of small molecules for inducing the selective apoptosis of undifferentiated hPSCs in previous studies (33). Therefore, it was predicted that, due to the induction of apoptosis by YM-155, treatment with YM-155 would decrease the number of hPSCs and thereby lower the ipc. […] Label-free cell chip-based quantification of residual undifferentiated hPSCs may be applied at the end stage, which is critical to determine whether any additional treatment of undifferentiated cells is required in order to ensure safety of tumor-free cell therapy. To mimic this situation, hiPSCs were co-cultured with hASMCs. After the co-culture in the cell chip, hiPSCs still maintained the specific colony morphology of hPSCs (FIG. 6C, left panel, black dotted line), but after 24 h of YM155 treatment, there was a typical colony morphology in hiPSCs but not in hASMCs (FIG. 6C, right panel, red dotted line).

[2] = test system: SSEA3-positive vs SSEA3-negative populations of hESC mixed culture; assay: Active caspase-3 apoptosis FACS in mixed culture of hESCs and differentiated cells derived therefrom; conditions: 40 nM, mixed culture of hESCs and differentiated cells derived therefrom (FIG. 10)
Text: Cells were stained with respective fluorescent-labeled antibodies and analyzed using FACSCalibur (BD Biosciences). The following antibodies were used: Oct4 (Abcam), FITC Rat Anti-SSEA3 and PE Mouse Anti-Human TRA-1-60 (BD Pharminogen). For apoptosis assays, cells were stained using the PE Annexin V Apoptosis Detection Kit and the PE Active Caspase-3 Apoptosis Kit (BD Pharminogen) according to the manufacturer's direction.
as §5

undifferentiated hPSCs = assay: Detection of specific cathodic peak potential (Epc) of hPSCs after YM-155 treatment; conditions: after YM-155 treatment to ablate undifferentiated hPSCs
Method: as §4

COCCn1c2c([n+](Cc3cnccn3)c1C)C(=O)c1ccccc1C2=O [YM-155]
cathodic peak current (ipc) (hiPSCs (SES8)): markedly reduced | number of cells (hiPSCs (SES8)): markedly reduced | cathodic peak current (ipc) (hESCs (H9)): markedly reduced | ipc level upon co-culture of hiPSCs and hASMCs ([1]; 40 nM YM155, compared with equal number of untreated hASMCs): as low as that of hASMCs | hiPSC colony morphology on the cell chip ([1]; 24 hour after treatment with 30 nM YM155, mixed culture of hiPSCs and hASMCs (FIG. 6C)): altered morphology of hiPSC colony | ipc upon co-culture of hiPSCs and hASMCs ([1]; mixed culture, 24 hours after treatment, different doses (FIG. 6D)): gradually decreased in a dose-dependent manner | apoptosis by active caspase-3 [2]: shown in only SSEA3-positive populations, not in SSEA3-negative populations | apoptosis by active caspase-3 ([2]; listed as YM-55): shown in only the SSEA3+(positive) population, but not in SSEA3-(negative) population | specific Epc of hPSCs (undifferentiated hPSCs): completely disappeared
